# Results taken from ChEMBL document CHEMBL5724558, “Image-based profiling of drug vulnerabilities in CRC organoids” (2024).
# Several values for one entry are separate records, joined by “and”; a condition that tells them apart may be missing. Identical values can stand only once.
# What was measured:
# Assay type in all cases: functional, Homo sapiens
# Design in all cases: dose or concentration left out as unconfirmed
# [1] = test system: Colon cancer organoid; assay: (§1) Image-based profiling of donated chemical probes and chemogenomic kinase set in O06 CRC organoid. Image analysis is performed on the sum area metric, and the data were normalized to the DMSO control. After imaging the organoid viability is measured using the OneGloEX Luciferase Assay System. The normalized viability data and sum area are reported.
# [2] = test system: Colon cancer organoid; assay: as §1, with “O09” for “O06”
# [3] = test system: Colon cancer organoid; assay: as §1, with “O21” for “O06”
Structure (SMILES),Cell Viability ([1]; Replication number 1),Cell Viability ([1]; Replication number 2),Cell Viability ([2]; Replication number 1),Cell Viability ([2]; Replication number 2),Cell Viability ([3]; Replication number 1),Cell Viability ([3]; Replication number 2)
Cl.Cl.Cl.c1ccc(N2CCN(Cc3nc4ccccc4[nH]3)CC2)nc1,75.342% and 94.3794%,106.955% and 116.079%,118.127% and 116.353%,87.0048% and 88.7915%,123.058% and 103.622%,81.1139% and 93.8775%
O=C(Nc1cccnn1)N1CCC(=Cc2cccc(Oc3ccc(C(F)(F)F)cn3)c2)CC1,84.0807% and 127.869%,104.052% and 107.077%,126.629% and 132.36%,65.2365% and 71.2669%,101.123% and 116.429%,106.817% and 109.694%
COc1ccc(Cn2ccc3ccc(C(=O)NO)cc32)cc1,150.267% and 98.5772%,160.829% and 118.056%,110.805% and 94.5904%,117.665% and 84.3839%,103% and 112.867%,100.715% and 96.6587%
CCn1cc(-c2cccc(C(F)(F)F)c2)c2sc(C(=N)NC3CCS(=O)(=O)CC3)cc2c1=O,179.562% and 135.302%,139.17% and 96.3091%,136.882% and 100.386%,86.2111% and 86.0944%,121.201% and 130.503%,111.866% and 107.936%
CCCOc1ccn2c(C(C)=O)cc(-c3cccc(OC)c3)c2c1,185.69% and 133.611%,217.677% and 137.175%,257.79% and 103.4%,158.474% and 115.458%,114.752% and 106.401%,123.226% and 102.029%
Cc1nc(N2CC[C@H](O)C2)ncc1-c1cc(C(F)(F)F)cc2[nH]ncc12,99.241% and 111.944%,84.0147% and 88.1256%,63.142% and 75.4977%,55.6466% and 44.9799%,102.375% and 86.1578%,90.0065% and 80.6122%
C[C@@H]1CC(=O)Nc2cccc(-c3ccc4c(c3)c(-c3cnn(C)c3)nn4C)c2N1,59.3391% and 89.8792%,80.6716% and 83.4041%,75.8759% and 56.1051%,135.457% and 81.8182%,80.8439% and 121.097%,82.2884% and 110.621%
CN1C[C@H](Nc2cnn(C)c(=O)c2Br)C[C@H](c2ccccc2)C1,155.67% and 115.973%,127.596% and 115.428%,140.201% and 85.3168%,101.083% and 86.6646%,130.754% and 116.395%,102.417% and 96.6587%
CO[C@H]1CNC[C@@H](OCC2CCC(F)(F)CC2)[C@@H]1Nc1ncc(-c2cncc(C)c2)c2cc(C)c(=O)[nH]c12,159.604% and 115.973%,145.077% and 98.9379%,183.516% and 118.934%,127.49% and 119.734%,117.954% and 107.577%,97.9494% and 89.6778%
Cc1sc2c(c1C)C(c1ccc(Cl)cc1)=N[C@@H](CC(=O)NCCCCCCCCNC(=O)COc1cccc3c1C(=O)N(C1CCC(=O)NC1=O)C3=O)c1nnc(C)n1-2 (some centres not stated),4.9545% and 11.7664%,6.03% and 10.6824%,79.9563% and 42.1947%,86.5792% and 48.4637%,41.9399% and 81.7113%,36.361% and 51.9272%
Cl.O=C(O)c1cc(-c2ccc(C3CCNCC3)cc2)c2ccc(-c3ccc(C(F)(F)F)cc3)cc2c1,91.1935% and 100.081%,81.9268% and 87.9385%,82.2902% and 109.541%,53.2933% and 84.4568%,122.525% and 121.681%,120.065% and 115.738%
C[C@@H](c1cccc(CN)c1)n1cc(Cl)cc(C(N)=O)c1=N.Cl,106.874% and 116.842%,95.2274% and 108.361%,102.95% and 110.479%,109.454% and 89.4132%,113.852% and 117.315%,85.2053% and 83.6166%
Cc1c(Nc2ccc(S(=O)(=O)N3CCN(C)CC3)cc2F)nc2ccc(Nc3cnn(C4CC4)c3)cn2c1=O,183.611% and 128.295%,165.181% and 157.488%,89.3145% and 89.49%,245.21% and 122.015%,116.907% and 92.8805%,82.2867% and 96.1217%
O=C(NCc1ccccc1)c1ccc(S(=O)(=O)NCc2ccccc2)cc1,187.548% and 135.666%,115.38% and 119.884%,92.4038% and 93.7908%,103.22% and 86.1192%,112.801% and 110.51%,91.6281% and 94.6419%
Cc1c(Nc2ccc(S(=O)(=O)N3CCN(C)CC3)cc2F)nc2ccc(-c3cnn(C4CC4)c3)cn2c1=O,155.776% and 116.215%,128.897% and 94.1583%,191.117% and 102.241%,170.931% and 98.6379%,111.388% and 118.746%,91.8423% and 96.6587%
CCOC(=O)CCNc1cc(N2CCc3ccccc3CC2)nc(-c2cccnc2)n1,133.48% and 94.953%,206.72% and 136.936%,137.493% and 102.473%,150.843% and 118.309%,67.1414% and 86.4141%,103.603% and 97.7327%
CNc1cc(Oc2cc(C(=O)Nc3cc(N4CCN(C)CC4)cc(C(F)(F)F)c3)ccc2C)ncn1,159.785% and 126.415%,134.323% and 110.437%,67.5725% and 54.8543%,89.2328% and 78.5558%,91.6844% and 105.366%,86.288% and 119.755%
C[C@H]1CCCN1Cc1nc2cc(NC(=O)c3ccc4cnccc4c3)ccc2[nH]1,103.275% and 86.0134%,127.654% and 99.8938%,74.8227% and 68.6244%,83.8481% and 67.5641%,78.6097% and 94.644%,77.6333% and 81.0859%
Cc1cc(C)cc([C@@H]2c3cc(C)ccc3NC(=O)CN2C(=O)c2ccc(Br)s2)c1,111.534% and 83.1141%,141.021% and 89.6176%,106.396% and 98.9954%,263.199% and 111.182%,115.521% and 108.165%,94.8359% and 62.8282%
Cc1cc(C)cc([C@H]2c3cc(C)ccc3NC(=O)CN2C(=O)c2ccc(Br)s2)c1,159.149% and 112.832%,176.911% and 106.346%,143.943% and 101.546%,157.398% and 102.629%,126.442% and 119.334%,102.791% and 105.788%
CC1=C(C)C(=O)C(C(C)(C)CC(=O)N(CCCCSC[C@H]2O[C@@H](n3cnc4c(N)ncnc43)[C@@H]3OC(C)(C)O[C@@H]32)Cc2cccc(-c3ccc(Cl)cc3)c2)=C(C)C1=O,141.238% and 103.893%,153.713% and 129.049%,93.185% and 86.476%,68.1346% and 85.8093%,97.336% and 122.861%,82.8638% and 97.7327%
COCCN1CCC(c2cc(CN(C)C(=O)c3cccc(Oc4ccccc4)c3)ccn2)CC1,195.683% and 128.295%,160.805% and 131.439%,147.027% and 86.0124%,179.06% and 107.19%,116.465% and 111.692%,91.1118% and 90.2148%
CC(=O)c1cc(-c2ccccc2OCC2CC2)c2ncccn12,193.281% and 129.503%,159.696% and 98.6989%,135.678% and 108.037%,170.672% and 99.2081%,119.426% and 104.637%,103.612% and 93.9737%
Cc1cc(CN)cc(C)c1-c1ncn(C)c1-c1cncn1C,108.725% and 89.8792%,171.9% and 107.541%,189.71% and 98.9954%,198.722% and 106.905%,118.759% and 94.0562%,98.6287% and 80.0119%
CC1=C(C)C(=O)C(C(C)(C)CC(=O)N(CCCCSC[C@H]2O[C@@H](n3cnc4c(N)ncnc43)[C@H](O)[C@@H]2O)Cc2cccc(-c3ccc(Cl)cc3)c2)=C(C)C1=O,167.397% and 142.309%,129.695% and 107.541%,154.166% and 104.56%,134.087% and 102.344%,85.391% and 116.982%,82.6503% and 80.5489%
CC(C)Oc1ccc(-c2c[nH]cc2CN(C)CCO)cc1,142.087% and 115.973%,131.014% and 107.302%,133.832% and 103.4%,212.72% and 118.594%,96.8467% and 122.861%,101.748% and 92.8998%
CCNC(=O)c1cc2c(N3CCOCC3C)ccnc2[nH]1 (configuration not stated),98.3654% and 112.881%,119.727% and 97.8383%,68.1497% and 105.84%,64.0482% and 77.4005%,130.503% and 111.772%,91.1701% and 91.3265%
